The structures appear in SMILES notation. Calls of active or inactive are those of the source. The rule behind the calls is not given here. A value given as a limit tells only on which side of the number the result lay.

Common to all, as to type: functional
For one assay, the system named is OVCAR-5. Put plainly: (§1) Cytotoxicity against human OVCAR5 cells assessed as growth inhibition at 10 uM after 48 hrs by SRB assay.
The subject of the next assay is SK-MEL-2. The assay can be described thus: Cytotoxicity against human SK-MEL-2 cells assessed as growth inhibition at 10 uM after 48 hrs by SRB assay. Particulars: SK-MEL-2, 48 h, read-out: GI. On the technique in general: In SRB staining, fixed cells bind dye roughly in proportion to their protein.
Another assay has as its system MDA-MB-231. Put plainly: Cytotoxicity against human MDA-MB-231 cells after 48 hrs by SRB assay. To be noted: MDA-MB-231, 48 h.
Assay [1] in a line: Cytotoxicity against human MOLT4 cells after 48 hrs by SRB assay. Particulars: MOLT-4, 48 h.
A short description of assay [2]: Cytotoxicity against human HL-60(TB) cells after 48 hrs by SRB assay. Particulars: HL-60, 48 h.
The nature of assay [3]: Cytotoxicity against human DU145 cells after 48 hrs by SRB assay. Particulars: DU-145, 48 h.
Another assay relates to A498. Put plainly: Cytotoxicity against human A498 cells after 48 hrs by SRB assay. Particulars: A498, 48 h.
Assay [4] can be described thus: Cytotoxicity against human OVCAR3 cells after 48 hrs by SRB assay. To be noted: OVCAR-3, 48 h.
The subject of another assay is EKVX. Put plainly: Cytotoxicity against human EKVX cells after 48 hrs by SRB assay.
For another assay, the system named is SK-MEL-5. Put plainly: Cytotoxicity against human SK-MEL-5 cells after 48 hrs by SRB assay. To be noted: SK-MEL-5, 48 h.
A short description of assay [5]: Cytotoxicity against human HCT15 cells after 48 hrs by SRB assay. To be noted: HCT-15, 48 h.
In a further assay the test system is M14. The assay can be described thus: Cytotoxicity against human M14 cells after 48 hrs by SRB assay. To be noted: M14, 48 h.
Assay [6] is described as follows: Cytotoxicity against human Hs578T cells after 48 hrs by SRB assay. Particulars: Hs-578T.
The nature of assay [7]: Cytotoxicity against human OVCAR5 cells after 48 hrs by SRB assay. To be noted: OVCAR-5, 48 h.
Assay [8] in a line: Cytotoxicity against human SNB19 cells after 48 hrs by SRB assay. Particulars: SNB-19, 48 h.
Assay [9] is described as follows: as §1. To be noted: OVCAR-5, 48 h, read-out: GI.
Assay [10] can be described thus: Cytotoxicity against human RXF393 cells after 48 hrs by SRB assay. To be noted: RXF 393, 48 h.
Another assay deals with NCI-H460. The assay can be described thus: Cytotoxicity against human NCI-H460 cells after 48 hrs by SRB assay. Particulars: NCI-H460, 48 h.
Another assay has as its system MDA-MB-468. The assay can be described thus: Cytotoxicity against human MDA-MB-468 cells after 48 hrs by SRB assay. Particulars: MDA-MB-468, 48 h.
Assay [11] in a line: Cytotoxicity against human UACC62 cells after 48 hrs by SRB assay. Particulars: UACC-62, 48 h.
Assay [12] can be described thus: Cytotoxicity against human HOP92 cells after 48 hrs by SRB assay. Particulars: HOP-92, 48 h.
The subject of the next assay is U-251. The assay can be described thus: Cytotoxicity against human U251 cells after 48 hrs by SRB assay. To be noted: U-251, 48 h.
Assay [13] is described as follows: Cytotoxicity against human UACC257 cells after 48 hrs by SRB assay. To be noted: UACC-257, 48 h.
The subject of the next assay is A549. The assay can be described thus: Cytotoxicity against human A549 cells after 48 hrs by SRB assay. Particulars: A549, 48 h.
Assay [14] can be described thus: Cytotoxicity against human SNB75 cells after 48 hrs by SRB assay. Particulars: SNB-75, 48 h.
The nature of assay [15]: Cytotoxicity against human IGROV1 cells after 48 hrs by SRB assay. Particulars: IGROV-1, 48 h.
The nature of assay [16]: Cytotoxicity against human HOP62 cells after 48 hrs by SRB assay. Particulars: HOP-62, 48 h.
A short description of assay [17]: Cytotoxicity against human SF295 cells after 48 hrs by SRB assay. Particulars: SF-295, 48 h.
The nature of assay [18]: Cytotoxicity against human NCI-ADR-RES cells after 48 hrs by SRB assay.
The test system of another assay is MCF7. Put plainly: Cytotoxicity against human MCF7 cells after 48 hrs by SRB assay. Particulars: MCF7, 48 h.
The nature of assay [19]: Cytotoxicity against human HCT116 cells after 48 hrs by SRB assay. To be noted: HCT-116, 48 h.
A further assay concerns MDA-MB-435. Put plainly: Cytotoxicity against human MDA-MB-435 cells after 48 hrs by SRB assay. To be noted: MDA-MB-435, 48 h.
A further assay deals with 786-0. The assay can be described thus: Cytotoxicity against human 786-0 cells after 48 hrs by SRB assay. To be noted: 786-0, 48 h.
Assay [20] is described as follows: Cytotoxicity against human OVCAR4 cells after 48 hrs by SRB assay. Particulars: OVCAR-4, 48 h.
Assay [21] in a line: Cytotoxicity against human HCC2998 cells after 48 hrs by SRB assay. To be noted: HCC 2998, 48 h.
Assay [22] in a line: Cytotoxicity against human PC3 cells after 48 hrs by SRB assay. Particulars: PC-3, 48 h.
[23] abbreviates: read-out: LC50 (the source's name).

On to `C=C1CC[C@@H]2[C@](C)(COC(C)=O)[C@H](OC(C)=O)CC[C@@]2(C)[C@@H]1CC(NC1CCCC1)C1=CCOC1=O` (stereo partly drawn), for which the “growth inhibition (GI)” value in the assay on OVCAR-5 is “inactive”. Moreover, the inhibition of growth at 10 µM with SK-MEL-2 amounted to 14.9%.

On to `C=C1CC[C@@H]2[C@](C)(COC(C)=O)[C@H](OC(C)=O)CC[C@@]2(C)[C@@H]1C/C=C1/C(=O)OC[C@H]1OC(C)=O`, for which the GI50 (in general, the concentration that inhibits growth by half) with MDA-MB-231 is 12.5 µM; in assay [1], 3.8 µM; in [2] it was 2.61 µM; in assay [3], 4.47 µM; in the assay on A498 it was 14.4 µM; in [4], 2.17 µM. Further, the GI50 was determined as 12.9 µM in the assay on EKVX; 9.5 µM with SK-MEL-5; 1.58 µM in assay [5]; 2.22 µM with M14; 12.3 µM in [6]; 1.93 µM in assay [7]. In addition, the 50% growth inhibitory concentration (GI50) in [8] turned out to be 10.8 µM; in assay [10] it was 1.95 µM; in the assay on NCI-H460, 18.6 µM; in the assay on MDA-MB-468 it was 2.04 µM; in [11], 3.37 µM; in assay [12] it was 13.2 µM. In addition, the 50% growth inhibitory concentration (GI50) amounted to 6.09 µM in the assay with U-251; 6.2 µM in assay [13]; 11.9 µM with A549; 2.83 µM in assay [14]; 2.41 µM in assay [15]; 4.4 µM in [16]. Also, the GI50 was 13.3 µM in [17]; 4.22 µM in [18]; 1.83 µM in the assay on MCF7; 1.45 µM in assay [19]; 2.63 µM in the assay on MDA-MB-435; 2.02 µM with 786-0. For the same compound, the values for the GI50 in [20], in assay [21] and in assay [22] were 3.57 µM, 12.2 µM and 6.07 µM, respectively. Also, the median lethal concentration (LC50) (in general, the concentration that kills 50% of the test population) in the assay with MDA-MB-231 is 58.7 µM; in [1], over 100 µM; in the assay on EKVX, 50.9 µM; in [5], 65.5 µM; in the assay with M14, 26.5 µM; with MDA-MB-468, 74.4 µM. Also, the median lethal concentration (LC50) in assay [11] is 40.7 µM; in assay [12], 52.7 µM; in the assay on A549, 79.3 µM; in assay [16] it was over 100 µM; in assay [17], 54.2 µM; in assay [18] it was over 100 µM. For the same compound, the LC50 stood at 9.29 µM in the assay on 786-0, 61.2 µM in assay [21] and 48.9 µM in assay [22]. The TGI (in general, the concentration at which net growth stops) with MDA-MB-231 is 27.1 µM; in [1], 16.1 µM; in assay [2], 6.78 µM; in assay [3], 14.7 µM; in the assay with A498, 27.5 µM; in [4], 4.21 µM. Besides, the total growth inhibition concentration (TGI) in the assay on EKVX came out at 25.6 µM; in the assay with SK-MEL-5, 22.4 µM; in assay [5], 4.33 µM; in the assay on M14, 6.48 µM; in [6], 55.4 µM; in assay [7], 3.92 µM. For the same compound, the TGI in [8] amounted to 24.5 µM; in assay [10], 4.13 µM; in the assay with NCI-H460, 37.7 µM; with MDA-MB-468 it was 5.69 µM; in assay [11], 13.5 µM; in [12], 26.4 µM. For the same compound, the TGI in the assay on U-251 is 19.3 µM; in assay [13], 19.9 µM; in the assay on A549, 30.7 µM; in assay [14] it was 14.2 µM; in [15], 6.23 µM; in [16] it was 21.3 µM. In addition, the TGI is 26.8 µM in assay [17]; 19.8 µM in assay [18]; 6.79 µM in the assay on MCF7; 2.98 µM in [19]; 10.1 µM with MDA-MB-435; 4.34 µM in the assay with 786-0. In addition, the total growth inhibition concentration (TGI) in assay [20] stood at 15.4 µM; in assay [21], 27.3 µM; in assay [22], 19.9 µM. Also, the CC50 stood at 78.5 µM in [2] (setting [23]); 52.6 µM in the assay with A498 (setting [23]); 76.2 µM with NCI-H460 (setting [23]); 37.6 µM in assay [14] (setting [23]); 32 µM in assay [15] (setting [23]); 41.8 µM in [20] (setting [23]). Besides, the LC50 (concentration killing 50% of cells) in [3] was 38.4 µM; in assay [4], 8.15 µM; in the assay with SK-MEL-5, 51 µM; in [6] it was over 100 µM; in assay [8], 55.6 µM; in [13], 53.2 µM. The compound further came in with an LC50 (concentration killing 50% of cells) in [19] of 6.15 µM. The values for the LC50 (concentration causing 50% net cell kill) in assay [7] and in [10] were 7.97 µM and 8.75 µM, respectively. In assay [9], the inhibition of growth at 10 µM amounted to 46.3%. This compound came in with an LC50 (concentration giving 50% net cell kill) in the assay with U-251 of 48.6 µM. Further, the results for the LC50 (50% lethal concentration) with MCF7 and in the assay on MDA-MB-435 were over 100 µM and 32.2 µM, respectively.

With `C=C1CC[C@@H]2[C@](C)(COC(C)=O)[C@H](OC(C)=O)CC[C@@]2(C)[C@@H]1CC(NCc1cccc(Cl)c1)C1=CCOC1=O` (mixture of isomers), the inhibition of growth at 10 µM was found to be 0.31% in assay [9] and 32% in the assay with SK-MEL-2.

Turning to `C=C1CC[C@@H]2[C@](C)(CO)[C@H](O)CC[C@@]2(C)[C@@H]1C/C=C1/C(=O)OC[C@H]1O` [ANDROGRAPHOLIDE], the “growth inhibition (GI)” value with OVCAR-5 was “inactive”.

With `C=C1CC[C@@H]2[C@](C)(COC(C)=O)[C@H](OC(C)=O)CC[C@@]2(C)[C@@H]1CC(NCc1ccccc1)C1=CCOC1=O` (mixture of isomers), in the assay with OVCAR-5, the “growth inhibition (GI)” value was “inactive”.

Consider `C=C1CC[C@@H]2[C@](C)(COC(C)=O)[C@H](OC(C)=O)CC[C@@]2(C)[C@@H]1CC(NCc1ccc(F)cc1)C1=CCOC1=O` (mixture of isomers), for which the inhibition of growth at 10 µM in assay [9] turned out to be 1%; in the assay on SK-MEL-2 it was 26.8%.

The values above are taken from ChEMBL document CHEMBL3734705, “Synthesis and in vitro cytotoxicity of novel C-12 substituted-14-deoxy-andrographolide derivatives as potent anti-cancer agents” (2015).
